One data set has as its target T1, MtmGntK (Methylotuvimicrobium alcaliphilum, UniProt G4T089).
T1 construct: gene gntK; C-terminal His6, E. coli Rosetta (DE3), pET30; ~20 kDa, monomer
T1 sequence (G4T089 1-181): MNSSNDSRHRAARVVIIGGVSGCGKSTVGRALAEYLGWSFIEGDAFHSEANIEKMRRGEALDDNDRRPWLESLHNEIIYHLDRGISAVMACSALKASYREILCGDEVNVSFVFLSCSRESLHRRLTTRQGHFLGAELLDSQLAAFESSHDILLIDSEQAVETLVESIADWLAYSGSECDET
Put plainly: biochemical. Particulars: read-out: % of control remaining; for remaining activity at 5000 µM: 5 mM; for remaining activity at 1000 µM: 1 mM. The arrangement: recombinant gluconate kinase activity, coupled to 6-phosphogluconate dehydrogenase, NADPH at 340 nm, effect of added metabolite. As to the method: GntK activity assay The activity of GntK was measured in the reaction mixture containing 50 mM Tris–HCl buffer, pH 9.0; 8 mM MgCl2; 6 mM gluconate; 5 mM ATP; 0.3 mM NADP^+; 5U 6-phosphogluconate dehydrogenase (6PGDH, Sigma-Aldrich) as a coupling enzyme and ~ 15 µg GntK. The activity of Mb. luteus GntK was assayed in 50 mM Tris–HCl buffer (pH 8.0). The reaction was started with 6 mM sodium gluconate. To study the effect of pH, the following buffers were used (50 mM): Carbonate (pH 9.0–10.5), TAPS-NaOH (pH 8.0–9.0), Tris–HCl (pH 7.5–9.0), K-phosphate (pH 7.0–8.0), MES-NaOH (pH 5.0–6.0) or citrate (pH 4.0–5.0). […] The NAD^+/NADP^+ reduction rates were measured at 340 nm with a UV-1700 spectrophotometer (Shimadzu). The apparent Km and Vmax values were calculated using Sigma Plot (version 10). The exponentially grown cells were used to measure enzymatic activity in cell-free extracts.

The target of data set [1] is T2, MtmGDH (Methylotuvimicrobium alcaliphilum, UniProt G4T0V2).
T2 construct: gene gdhI; full ORF, N-terminal His6 kept, E. coli Rosetta (DE3), pET28
T2 sequence (G4T0V2 1-271): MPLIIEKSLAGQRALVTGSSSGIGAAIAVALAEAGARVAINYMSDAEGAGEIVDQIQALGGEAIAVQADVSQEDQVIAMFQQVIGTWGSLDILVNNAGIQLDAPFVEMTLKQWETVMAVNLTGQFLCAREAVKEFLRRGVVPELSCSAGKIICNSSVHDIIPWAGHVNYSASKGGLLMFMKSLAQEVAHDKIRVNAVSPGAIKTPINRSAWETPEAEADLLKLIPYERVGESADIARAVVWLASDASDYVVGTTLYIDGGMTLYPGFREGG
The data set is described as follows: biochemical. To be noted: read-out: % of control remaining; for remaining activity at 1000 µM: 1 mM; for remaining activity at 5000 µM: 5 mM. As to the method:
GDH activity assay The activity of GDH from Mtm. alcaliphilum was measured by recording the rate of NAD^+ or NADP^+ reduction at 30 °C. 1 mL of the reaction mixture routinely contained 50 mM Glycine–NaOH buffer, pH 10.0; 0.3 mM NAD(P)^+ and ~ 1 μg of GDH. The reaction was started with 200 mM D-glucose. The activity of Mb. luteus GDH was measured using 20 mM D-glucose in 50 mM Tris–HCl, pH 8.5. […] The effect of pH on the activity was studied using the following buffers (50 mM): Glycine–NaOH (pH 9.0–10.5), CHES-NaOH (pH 8.5–10.0), Tris–HCl (pH 7.5–9.0), and MES-NaOH (pH 5.0–7.0). KCl, NH4Cl or NaCl at a final concentration of 50 mM were added to test the effect of monovalent ions on the enzyme activity. The effects of divalent metals were assessed using MgCl2, MnCl2, [compound left out], CuCl2, CdCl2, NiCl2 or ZnCl2 at a final concentration of 1 mM. Glucose-6-phosphate, glucose-1-phosphate, fructose-6-phosphate, fructose-1,6-bisphosphate (5 mM), pyruvate, PEP, oxaloacetate, lactate, malate, isocitrate, citrate, succinate, serine, α-ketoglutarate, ATP, ADP, AMP and PPi (1 mM) were examined as potential inhibitors or activators. To determine the optimal temperature for enzyme activity, the reaction was carried out in a temperature range of 10–70 °C.

The next data set addresses T3, MbGDH (Methylobacter luteus, UniProt Z9JUG8QEO0).
T3 construct: gene gdh; full ORF, N-terminal His6 (pET28Ub-shHis)
The data set is described as follows: NAD(P)H formation at […] nm. It counts as biochemical. Particulars: inhibitor; 10 mM in results (5 mM in methods); pH 8.5 Tris-HCl, 20 mM D-glucose.

In data set [2] the target is T4, MtmGDH (Methylotuvimicrobium alcaliphilum, UniProt G4T0V2).
T4 construct: gene gdhI; full ORF, N-terminal His6 kept, E. coli Rosetta (DE3), pET28
Put plainly: NAD(P)H formation at […] nm. Type of data set: biochemical. Particulars: activator; pH 10.0 glycine-NaOH, 30 °C, 200 mM D-glucose.

Data set [3] deals with T5, NC(=O)c1ccc[n+]([C@@H]2O[C@H](COP(=O)(O)OP(=O)(O)OC[C@H]3O[C@@H](n4cnc5c(N)ncnc54)[C@H](OP(=O)(O)O)[C@@H]3O)[C@@H](O)[C@H]2O)c1.
T5 construct: full ORF, N-terminal His6 (pET28Ub-shHis)
The data set is described as follows: purified protein. Particulars: pH 8.5 Tris-HCl, D-glucose. Type of data set: biochemical, Methylobacter luteus.

The test system of data set [4] is T6, NC(=O)c1ccc[n+]([C@@H]2O[C@H](COP(=O)(O)OP(=O)(O)OC[C@H]3O[C@@H](n4cnc5c(N)ncnc54)[C@H](O)[C@@H]3O)[C@@H](O)[C@H]2O)c1.
T6 construct: full ORF, N-terminal His6 (pET28Ub-shHis)
The data set is described as follows: purified protein. To be noted: pH 8.5 Tris-HCl, D-glucose. It counts as biochemical, Methylobacter luteus.

Data set [5] deals with glucose dehydrogenase (GDH) from Methylobacter luteus IMV-B-3098 (Methylobacter luteus IMV-B-3098). Put plainly: SEC; gel filtration on XK 16/100 Superdex 200, 0.02 M Tris-HCl pH 7.0 with 0.5 M NaCl, calibrated with protein markers; GDHs with the cut-off His-tag.
Data set [6] addresses glucose dehydrogenase (GDH) from Methylotuvimicrobium alcaliphilum 20Z (Methylotuvimicrobium alcaliphilum 20Z). The data set is described as above.
Substrate in data set [7]: O=C(O)[C@H](O)[C@@H](O)[C@H](O)[C@H](O)CO
Put plainly: purified protein. Type of data set: biochemical, Methylotuvimicrobium alcaliphilum. Particulars: pH 9.0 Tris-HCl, 8 mM MgCl2, 5 mM ATP.

Substrate in data set [8]: Nc1ncnc2c1ncn2[C@@H]1O[C@H](COP(=O)(O)OP(=O)(O)OP(=O)(O)O)[C@@H](O)[C@H]1O
Put plainly: purified protein. It counts as biochemical, Methylotuvimicrobium alcaliphilum. To be noted: pH 9.0 Tris-HCl, 8 mM MgCl2, 6 mM gluconate, Hill n = 1.6.

Substrate in data set [9]: NC(=O)c1ccc[n+]([C@@H]2O[C@H](COP(=O)(O)OP(=O)(O)OC[C@H]3O[C@@H](n4cnc5c(N)ncnc54)[C@H](O)[C@@H]3O)[C@@H](O)[C@H]2O)c1
Put plainly: purified protein. Type of data set: biochemical, Methylotuvimicrobium alcaliphilum. Particulars: pH 10.0 glycine-NaOH, 30 °C, 200 mM D-glucose.

Substrate in data set [10]: NC(=O)c1ccc[n+]([C@@H]2O[C@H](COP(=O)(O)OP(=O)(O)OC[C@H]3O[C@@H](n4cnc5c(N)ncnc54)[C@H](OP(=O)(O)O)[C@@H]3O)[C@@H](O)[C@H]2O)c1
The data set is described as follows: purified protein. It counts as biochemical, Methylotuvimicrobium alcaliphilum. Particulars: pH 10.0 glycine-NaOH, 30 °C, 200 mM D-glucose.

T3 sequence (Z9JUG8QEO0 1-271 limits assumed): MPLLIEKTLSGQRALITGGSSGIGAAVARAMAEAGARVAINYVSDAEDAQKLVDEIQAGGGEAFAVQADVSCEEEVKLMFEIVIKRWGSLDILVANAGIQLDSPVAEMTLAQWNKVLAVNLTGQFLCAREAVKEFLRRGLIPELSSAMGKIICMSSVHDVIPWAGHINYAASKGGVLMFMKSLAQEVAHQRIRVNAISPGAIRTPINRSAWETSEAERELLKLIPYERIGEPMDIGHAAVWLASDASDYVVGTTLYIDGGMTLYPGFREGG

With `Nc1ncnc2c1ncn2[C@@H]1O[C@H](COP(=O)(O)OP(=O)(O)O)[C@@H](O)[C@H]1O` [ADP], at MtmGntK, the remaining activity at 5000 µM worked out at 71 ± 1%. Moreover, at MtmGDH [1], the remaining activity at 1000 µM was 87 ± 1%.

With `Nc1ncnc2c1ncn2[C@@H]1O[C@H](COP(=O)(O)O)[C@@H](O)[C@H]1O` [AMP], the remaining activity at 4000 µM on MtmGntK (4 mM) was found to be 98 ± 1%. Also, the remaining activity at 1000 µM at MtmGDH [1] was found to be 109 ± 1%.

For `Nc1ncnc2c1ncn2[C@@H]1O[C@H](COP(=O)(O)OP(=O)(O)OP(=O)(O)O)[C@@H](O)[C@H]1O` [ATP], the remaining activity at 1000 µM on MtmGDH [1] was found to be 93 ± 2%.

For the molecule `O=C(O)CC(O)(CC(=O)O)C(=O)O` [Citrate], the remaining activity at 1000 µM on MtmGDH [1] amounted to 119 ± 1%.

Turning to `O=P(O)(O)OC[C@H]1O[C@@](O)(COP(=O)(O)O)[C@@H](O)[C@@H]1O` [Fructose-1,6-bisphosphate], the remaining activity at 5000 µM on MtmGDH [1] came out at 103 ± 1%.

On to `O=C(CO)[C@@H](O)[C@H](O)[C@H](O)COP(=O)(O)O` [Fructose-6-phosphate], for which, on MtmGDH [1], the remaining activity at 5000 µM stood at 101 ± 1%.

Regarding `O=P(O)(O)O[C@H]1O[C@H](CO)[C@@H](O)[C@H](O)[C@H]1O` [Glucose 1-Phosphate], the remaining activity at 5000 µM at MtmGntK is 96 ± 2%.

In the case of `O=P(O)(O)O[C@H]1O[C@H](CO)[C@@H](O)[C@H](O)[C@H]1O` [Glucose-1-phosphate], the remaining activity at 5000 µM on MtmGDH [1] is 103 ± 1%.

On to `CC(O)C(=O)O` (stereo not drawn) [Lactate], for which the remaining activity at 1000 µM at MtmGDH [1] worked out at 116 ± 1%.

Take `O=C(O)CC(O)C(=O)O` (stereo not drawn) [Malate]: the remaining activity at 1000 µM at MtmGDH [1] came out at 95 ± 5%.

As to `O=C(O)CC(=O)C(=O)O` [Oxaloacetate], the remaining activity at 1000 µM at MtmGntK turned out to be 101 ± 1%; at MtmGDH [1] it was 107 ± 3%.

As for `C=C(OP(=O)(O)O)C(=O)O` [Phosphoenolpyruvate], the remaining activity at 5000 µM at MtmGntK is 84 ± 1%. Besides, the remaining activity at 1000 µM at MtmGDH [1] turned out to be 94%.

For `CC(=O)C(=O)O` [Pyruvate], the remaining activity at 3000 µM at MtmGntK (3 mM) turned out to be 95 ± 2%. In addition, on MtmGDH [1], the remaining activity at 1000 µM turned out to be 96 ± 1%.

Turning to `N[C@@H](CO)C(=O)O` [Serine], the remaining activity at 1000 µM at MtmGDH [1] was found to be 108 ± 3%.

Consider `O=C(O)CCC(=O)O` [Succinate], for which the remaining activity at 1000 µM at MtmGDH [1] was 99 ± 1%.

Turning to `O=P(O)(O)OC[C@H]1OC(O)[C@H](O)[C@@H](O)[C@@H]1O` (stereo partly drawn) [glucose-6-phosphate], the remaining activity at 5000 µM at MtmGntK is 96 ± 1%. Besides, at MbGDH, the “% decrease of activity at 10 mM” value was found to be 40%.

Turning to `O=C(O)C[C@H](C(=O)O)[C@@H](O)C(=O)O` [isocitrate], the remaining activity at 1000 µM at MtmGDH [1] was determined as 140 ± 4%. Besides, on MtmGDH [2], the “% increase of activity at 1 mM” value is given as 40%.

`O=C(O)CCC(=O)C(=O)O` [α-Ketoglutarate]: the figures for the remaining activity at 1000 µM at MtmGntK and at MtmGDH [1] were 90 ± 2% and 104 ± 1%, respectively.

By Km is commonly meant the substrate concentration at which the rate is half of its maximum. As usually defined, the kcat is the number of substrate molecules converted per active site and unit of time at saturation. Consider MbGDH (Methylobacter luteus), for which, in data set [3], the Km amounted to 1600 ± 300 µM and the kcat was 0.067 s⁻¹. In [4], the Km is 120 ± 20 µM and the kcat stood at 0.05 s⁻¹.

For orientation: stoichiometry N means a count of units in the complex or per binding partner. In data set [5], “glucose dehydrogenase (GDH) from Methylobacter luteus IMV-B-3098 (enzyme)” came in with a stoichiometry N of 4.

“glucose dehydrogenase (GDH) from Methylotuvimicrobium alcaliphilum 20Z (enzyme)” displayed a stoichiometry N in [6] of 4.

B1: MtmGntK (Methylotuvimicrobium alcaliphilum 20Z) (protein)
chain: T1 sequence (G4T089 1-181)
notes: C-terminal His6, E. coli Rosetta (DE3), pET30; ~20 kDa, monomer
Regarding B1, in the data set “purified protein [7]”, the K0.5 was determined as 0.6 ± 0.04 mM and the kcat is 0.00433 s⁻¹. Besides, in “purified protein [8]”, the K0.5 is recorded as 1.3 ± 0.2 mM and the kcat came to 0.00867 s⁻¹.

B2: MtmGDH without His6-tag (Methylotuvimicrobium alcaliphilum 20Z) (protein)
chain: T2 sequence (G4T0V2 1-271)
notes: full ORF, His6 tag cut off with Usp2-His6 protease (not repurified afterwards), E. coli Rosetta (DE3), pET28Ub-shHis; homotetramer 112 kDa
Take B2: the Km in “purified protein [9]” turned out to be 390 ± 60 µM; in the data set “purified protein [10]”, 340 ± 20 µM.

B3: MtmGDH (Methylotuvimicrobium alcaliphilum 20Z) (protein)
chain: T2 sequence (G4T0V2 1-271)
notes: full ORF, N-terminal His6 kept, E. coli Rosetta (DE3), pET28
In the case of B3, the Km in “purified protein [9]” is 360 ± 20 µM; in the data set “purified protein [10]”, 140 ± 10 µM. Besides, the figures for the kcat in “purified protein [9]” and in “purified protein [10]” were 0.177 s⁻¹ and 0.00583 s⁻¹, respectively.

Values taken from paper PMC8062543 (Scientific Reports, 2021).
